{"source": "patent US20260234135A1", "about": "“CRYSTALLINE FORMS OR SALTS OF A DEUTERATED COMPOUND” (ALEBUND PHARMACEUTICALS (HONG KONG) LIMITED, priority 2023, published 2026)", "key": {"[1]": {"assay": "Hygroscopicity evaluation by DVS at 25° C.", "assay_type": "physicochemical", "conditions": "for Water uptake up to 80% RH: DVS, 25° C.; for Form change after DVS test: XRPD after DVS", "description": "DVS was measured via a SMS (Surface Measurement Systems) DVS Intrinsic. The relative humidity at 25° C. were calibrated against deliquescence point of LiCl, Mg(NO3)2 and KCl."}}, "note": "Where two headings read alike, the source gives them in different places.", "data": [{"smiles": "[2H]C([2H])(Cc1nc(-c2ccccc2)oc1C)Oc1ccc(C[C@H](OC)C(=O)[O-])c2sccc12.[K+]", "note": "[K salt Form C]", "values": [{"measurement": "Water uptake up to 80% RH", "setting": "[1]", "result": 12.0, "unit": "%"}, {"measurement": "Form change after DVS test", "setting": "[1]", "result": "form change was observed"}, {"measurement": "Area (%) of impurity peak RRT 1.34", "setting": "40° C./75% RH, 2 weeks", "result": 0.24, "unit": "%"}, {"measurement": "Area (%) of impurity peak RRT 1.34", "setting": "40° C./75% RH, 4 weeks", "result": 0.25, "unit": "%"}, {"measurement": "Area (%) of impurity peak RRT 1.34", "setting": "40° C./75% RH, 8 weeks", "result": 0.25, "unit": "%"}, {"measurement": "HPLC Purity (area %), main peak RRT 1.00", "setting": "40° C./75% RH/open, 2 weeks", "result": 99.76, "unit": "area %"}, {"measurement": "HPLC Reults of initial (%)", "setting": "40° C./75% RH/open, 2 weeks", "result": 100.01, "unit": "%"}, {"measurement": "HPLC Purity (area %), main peak RRT 1.00", "setting": "40° C./75% RH/open, 4 weeks", "result": 99.75, "unit": "area %"}, {"measurement": "HPLC Reults of initial (%)", "setting": "40° C./75% RH/open, 4 weeks", "result": 100.00, "unit": "%"}, {"measurement": "HPLC Purity (area %), main peak RRT 1.00", "setting": "40° C./75% RH/open, 8 weeks", "result": 99.75, "unit": "area %"}, {"measurement": "HPLC Reults of initial (%)", "setting": "40° C./75% RH/open, 8 weeks", "result": 100.00, "unit": "%"}, {"measurement": "Area (%) of impurity peak RRT 0.88", "setting": "60° C., 2 weeks", "result": 0.10, "unit": "%"}, {"measurement": "Area (%) of impurity peak RRT 1.14", "setting": "60° C., 2 weeks", "result": 0.07, "unit": "%"}, {"measurement": "Area (%) of impurity peak RRT 1.34", "setting": "60° C., 2 weeks", "result": 0.26, "unit": "%"}, {"measurement": "Area (%) of impurity peak RRT 0.88", "setting": "60° C., 4 weeks", "result": 0.08, "unit": "%"}, {"measurement": "Area (%) of impurity peak RRT 1.14", "setting": "60° C., 4 weeks", "result": 0.04, "unit": "%"}, {"measurement": "Area (%) of impurity peak RRT 1.34", "setting": "60° C., 4 weeks", "result": 0.24, "unit": "%"}, {"measurement": "Area (%) of impurity peak RRT 0.88", "setting": "60° C., 8 weeks", "result": 0.09, "unit": "%"}, {"measurement": "Area (%) of impurity peak RRT 1.34", "setting": "60° C., 8 weeks", "result": 0.24, "unit": "%"}, {"measurement": "Form or purity change after storage", "setting": "60° C./close and 40° C./75% RH/open for 2/4/8 weeks", "result": "No purity decrease but form change"}, {"measurement": "HPLC Purity (area %), main peak RRT 1.00", "setting": "60° C./close, 2 weeks", "result": 99.57, "unit": "area %"}, {"measurement": "HPLC Reults of initial (%)", "setting": "60° C./close, 2 weeks", "result": 99.82, "unit": "%"}, {"measurement": "HPLC Purity (area %), main peak RRT 1.00", "setting": "60° C./close, 4 weeks", "result": 99.64, "unit": "area %"}, {"measurement": "HPLC Reults of initial (%)", "setting": "60° C./close, 4 weeks", "result": 99.89, "unit": "%"}, {"measurement": "HPLC Purity (area %), main peak RRT 1.00", "setting": "60° C./close, 8 weeks", "result": 99.67, "unit": "area %"}, {"measurement": "HPLC Reults of initial (%)", "setting": "60° C./close, 8 weeks", "result": 99.92, "unit": "%"}, {"measurement": "Area (%) of impurity peak RRT 1.34", "setting": "Initial", "result": 0.25, "unit": "%"}, {"measurement": "HPLC Purity (area %), main peak RRT 1.00", "setting": "Initial", "result": 99.75, "unit": "area %"}]}, {"smiles": "[2H]C([2H])(Cc1nc(-c2ccccc2)oc1C)Oc1ccc(C[C@H](OC)C(=O)[O-])c2sccc12.[Na+]", "note": "[Na salt Form A]", "values": [{"measurement": "Water uptake up to 80% RH", "setting": "[1]", "result": 5.5, "unit": "%"}, {"measurement": "Form change after DVS test", "setting": "[1]", "result": "form change was observed"}, {"measurement": "Area (%) of impurity peak RRT 0.89", "setting": "40° C./75% RH, 2 weeks", "result": 0.04, "unit": "%"}, {"measurement": "Area (%) of impurity peak RRT 1.14", "setting": "40° C./75% RH, 2 weeks", "result": 0.03, "unit": "%"}, {"measurement": "Area (%) of impurity peak RRT 1.34", "setting": "40° C./75% RH, 2 weeks", "result": 0.23, "unit": "%"}, {"measurement": "Area (%) of impurity peak RRT 0.89", "setting": "40° C./75% RH, 4 weeks", "result": 0.07, "unit": "%"}, {"measurement": "Area (%) of impurity peak RRT 1.34", "setting": "40° C./75% RH, 4 weeks", "result": 0.23, "unit": "%"}, {"measurement": "Area (%) of impurity peak RRT 0.89", "setting": "40° C./75% RH, 8 weeks", "result": 0.05, "unit": "%"}, {"measurement": "Area (%) of impurity peak RRT 1.34", "setting": "40° C./75% RH, 8 weeks", "result": 0.24, "unit": "%"}, {"measurement": "HPLC Purity (area %), main peak RRT 1.00", "setting": "40° C./75% RH/open, 2 weeks", "result": 99.71, "unit": "area %"}, {"measurement": "HPLC Reults of initial (%)", "setting": "40° C./75% RH/open, 2 weeks", "result": 100.03, "unit": "%"}, {"measurement": "HPLC Purity (area %), main peak RRT 1.00", "setting": "40° C./75% RH/open, 4 weeks", "result": 99.69, "unit": "area %"}, {"measurement": "HPLC Reults of initial (%)", "setting": "40° C./75% RH/open, 4 weeks", "result": 100.02, "unit": "%"}, {"measurement": "HPLC Purity (area %), main peak RRT 1.00", "setting": "40° C./75% RH/open, 8 weeks", "result": 99.71, "unit": "area %"}, {"measurement": "HPLC Reults of initial (%)", "setting": "40° C./75% RH/open, 8 weeks", "result": 100.03, "unit": "%"}, {"measurement": "Form or purity change after storage", "setting": "60° C. for 8 weeks", "result": "Slightly purity decrease and form change"}, {"measurement": "Area (%) of impurity peak RRT 0.58", "setting": "60° C., 2 weeks", "result": 0.10, "unit": "%"}, {"measurement": "Area (%) of impurity peak RRT 0.79", "setting": "60° C., 2 weeks", "result": 0.07, "unit": "%"}, {"measurement": "Area (%) of impurity peak RRT 0.81", "setting": "60° C., 2 weeks", "result": 0.10, "unit": "%"}, {"measurement": "Area (%) of impurity peak RRT 0.89", "setting": "60° C., 2 weeks", "result": 0.08, "unit": "%"}, {"measurement": "Area (%) of impurity peak RRT 0.91", "setting": "60° C., 2 weeks", "result": 0.05, "unit": "%"}, {"measurement": "Area (%) of impurity peak RRT 1.14", "setting": "60° C., 2 weeks", "result": 0.05, "unit": "%"}, {"measurement": "Area (%) of impurity peak RRT 1.34", "setting": "60° C., 2 weeks", "result": 0.22, "unit": "%"}, {"measurement": "Area (%) of impurity peak RRT 0.29", "setting": "60° C., 4 weeks", "result": 0.07, "unit": "%"}, {"measurement": "Area (%) of impurity peak RRT 0.58", "setting": "60° C., 4 weeks", "result": 0.16, "unit": "%"}, {"measurement": "Area (%) of impurity peak RRT 0.63", "setting": "60° C., 4 weeks", "result": 0.05, "unit": "%"}, {"measurement": "Area (%) of impurity peak RRT 0.79", "setting": "60° C., 4 weeks", "result": 0.13, "unit": "%"}, {"measurement": "Area (%) of impurity peak RRT 0.81", "setting": "60° C., 4 weeks", "result": 0.20, "unit": "%"}, {"measurement": "Area (%) of impurity peak RRT 0.86", "setting": "60° C., 4 weeks", "result": 0.06, "unit": "%"}, {"measurement": "Area (%) of impurity peak RRT 0.89", "setting": "60° C., 4 weeks", "result": 0.08, "unit": "%"}, {"measurement": "Area (%) of impurity peak RRT 0.91", "setting": "60° C., 4 weeks", "result": 0.10, "unit": "%"}, {"measurement": "Area (%) of impurity peak RRT 0.95", "setting": "60° C., 4 weeks", "result": 0.05, "unit": "%"}, {"measurement": "Area (%) of impurity peak RRT 1.34", "setting": "60° C., 4 weeks", "result": 0.20, "unit": "%"}, {"measurement": "Area (%) of impurity peak RRT 0.29", "setting": "60° C., 8 weeks", "result": 0.11, "unit": "%"}, {"measurement": "Area (%) of impurity peak RRT 0.58", "setting": "60° C., 8 weeks", "result": 0.25, "unit": "%"}, {"measurement": "Area (%) of impurity peak RRT 0.63", "setting": "60° C., 8 weeks", "result": 0.12, "unit": "%"}, {"measurement": "Area (%) of impurity peak RRT 0.79", "setting": "60° C., 8 weeks", "result": 0.19, "unit": "%"}, {"measurement": "Area (%) of impurity peak RRT 0.81", "setting": "60° C., 8 weeks", "result": 0.35, "unit": "%"}, {"measurement": "Area (%) of impurity peak RRT 0.86", "setting": "60° C., 8 weeks", "result": 0.06, "unit": "%"}, {"measurement": "Area (%) of impurity peak RRT 0.91", "setting": "60° C., 8 weeks", "result": 0.21, "unit": "%"}, {"measurement": "Area (%) of impurity peak RRT 0.95", "setting": "60° C., 8 weeks", "result": 0.09, "unit": "%"}, {"measurement": "Area (%) of impurity peak RRT 1.34", "setting": "60° C., 8 weeks", "result": 0.20, "unit": "%"}, {"measurement": "HPLC Purity (area %), main peak RRT 1.00", "setting": "60° C./close, 2 weeks", "result": 99.33, "unit": "area %"}, {"measurement": "HPLC Reults of initial (%)", "setting": "60° C./close, 2 weeks", "result": 99.65, "unit": "%"}, {"measurement": "HPLC Purity (area %), main peak RRT 1.00", "setting": "60° C./close, 4 weeks", "result": 98.91, "unit": "area %"}, {"measurement": "HPLC Reults of initial (%)", "setting": "60° C./close, 4 weeks", "result": 99.23, "unit": "%"}, {"measurement": "HPLC Purity (area %), main peak RRT 1.00", "setting": "60° C./close, 8 weeks", "result": 98.43, "unit": "area %"}, {"measurement": "HPLC Reults of initial (%)", "setting": "60° C./close, 8 weeks", "result": 98.75, "unit": "%"}, {"measurement": "Area (%) of impurity peak RRT 0.89", "setting": "Initial", "result": 0.05, "unit": "%"}, {"measurement": "Area (%) of impurity peak RRT 1.14", "setting": "Initial", "result": 0.05, "unit": "%"}, {"measurement": "Area (%) of impurity peak RRT 1.34", "setting": "Initial", "result": 0.22, "unit": "%"}, {"measurement": "HPLC Purity (area %), main peak RRT 1.00", "setting": "Initial", "result": 99.68, "unit": "area %"}, {"measurement": "Form", "setting": "XRPD after 40° C./75% RH/open, 2/4/8 weeks", "result": "New form"}]}]}
